Reference: patent publication US4002753A, “6-Substituted 3-carbethoxyhydrazinopyridazines” (I.S.F. S.p.A., priority 1973, dated 1977)

Columns and labels:
Assay type in all cases: in vivo
[1] = tested on: Renal hypertensive awaken rat; test: Anti-hypertensive activity in the renal hypertensive awaken rat (Grollman method), arterial pressure by bloodless method; details: oral; for ED20: read-out: ED20 orally
Experimental: Some illustrative results obtained in the renal hypertensive awaken rat according to the method of A. Grollman (Proc. Soc. Exptl. Biol. Med., 57, 102, 1944) are given in Table 1. The products were administered orally to groups of 4 rats for each dosage level. The arterial pressure was measured by bloodless method immediately before and at the 1st, 3rd, 5th, 7th, 12th, 24th, 36th, 48th and 60th hour after administration.
x ED20 = dose producing a 20% fall in pressure compared to the basal

Mouse = test: Acute toxicity in the mouse, intraperitoneal (approximate LD50); details: 6 dosage levels
Experimental: (§1) The evaluation of the acute toxicity was carried out in the mouse administering the products by the intraperitoneal route at 6 different dosage levels. The approximate LD50 was determined thereafter.

[2] = as above; details: in vivo, ip, 6 dosage levels, read-out: Mouse LD50 i.p.
Experimental: as §1

[3] = dose producing a 20% fall in pressure compared to the basal value

Compound | Time in hours of half effect appearance [1] [h] | Time in hours of maximum effect appearance [1] [h] | ED20 orally [1, 3] [mg/kg] | Mouse LD50 i.p. (Mouse) [mg/kg] | ED20 [1, 3] [mg/kg] | LD50 [2] [mg/kg]
CCOC(=O)NNc1nncc2ccccc12 [Binazin, reference compound] | 20 | 3 | 7 | 500 | – | –
CCOC(=O)NNc1ccc(N(C)CC(C)O)nn1 (centres unmarked) [Example 3, 3-(2-Carbethoxyhydrazino)-6-[N-(2-hydroxypropyl)methylamino]-pyridazine] | 36 | 5 | – | – | 1 | 700
C=CCN(CC=C)c1ccc(NNC(=O)OCC)nn1 [Example 5, 3-(2-Carbethoxyhydrazino)-6-diallylaminopyridazine] | 48 | 5 | – | – | 1 | 300
CCOC(=O)NNc1ccc(N(CC)CC(C)O)nn1 (centres unmarked) [Example 6, 3-(2-Carbethoxyhydrazino)-6-[N-(2-hydroxypropyl)ethylamino]-pyridazine] | 36 | 5 | – | – | 1 | 700
NNc1nncc2ccccc12 [Hydralazine, reference compound] | 5 | 1 | – | – | 3 | 100
